# In paper PMC6273488, “Synthesis and Biological Evaluation of Benzochromenopyrimidinones as Cholinesterase Inhibitors and Potent Antioxidant, Non-Hepatotoxic Agents for Alzheimer’s Disease” (Molecules, 2016):
# Read-outs that look alike come from different tables or passages of the source.
# How the values were obtained:
# [1] = molecular target: T1, Electrophorus electricus AChE (EeAChE) (Electrophorus electricus, UniProt O42275); assay: Inhibition of EeAChE (Ellman's assay); assay type: biochemical; settings: mean ± SEM, at least three independent experiments
# T1 construct: purified AChE from Electrophorus electricus (Type V-S, Sigma-Aldrich); purchased Sigma-Aldrich Type V-S
# Experimental: (§1) For the preliminary screening of the inhibitory potencies, Electrophorus electricus AChE (EeAChE) and horse serum BuChE (eqBuChE) were used following the Ellman’s assay.
# (§2) Assessment of the inhibitory power of BCPOs was performed following the spectrophotometric method of Ellman using purified AChE from Electrophorus electricus (Type V-S, Sigma-Aldrich) or BuChE from horse serum (lyophilized powder, Sigma-Aldrich). Enzymes were first dissolved in 0.1 M phosphate buffer (pH 8.0) and then aliquoted in small vials for easy handling. Compounds stock solutions in DMSO (10 mM) were diluted when necessary with DMSO to prepare appropriate dilutions of each compound. The assay was performed in a final volume of 3 mL of a 0.1 M phosphate-buffered solution at pH 8.0, containing 5,5′-dithiobis-2-nitrobenzoic acid (DTNB, 2625 µL, 0.35 mM, final concentration), EeAChE (29 µL, 0.035 U/mL final concentration) or eqBuChE (60 µL, 0.05 U/mL final concentration) tested compound (3 µL, different concentrations) and 1% (w/v) Bovine Albumin Serum phosphate-buffered (pH 8.0) solution (BSA, 40 µL). The inhibition in comparison to control without compound was determined by pre-incubating this blend at room temperature with each compound at nine different concentrations for 10 min. Then, acetylthiocholine iodide (105 µL, 0.35 mM, final concentration) or butyrylthiocholine iodide (150 µL, 0.5 mM final concentration) was added and incubated for another 15 min at rt. […] Calculation of IC50 values was performed with GraphPad Prism 5. Each concentration was measured in triplicate. Data are expressed as mean ± SEM.
# [2] = molecular target: T2, horse serum BuChE (eqBuChE) (Equus caballus, UniProt P81908); assay: Inhibition of eqBuChE (Ellman's assay); assay type: biochemical; settings: 10 µM compound
# T2 construct: BuChE from horse serum (lyophilized powder, Sigma-Aldrich); purchased Sigma-Aldrich; host or cells: horse serum
# Experimental: as §1, §2
# [3] = Oxygen radical absorbance capacity by fluorescence (ORAC-FL); settings: mean ± SD
# Experimental: Trolox was used as standard, fluorescein as fluorescent probe and 2,2′-azobis(2-amidinopropane) dihydrochloride (AAPH) as the peroxyl radical source. Ferulic acid was used as a positive control.
# The antioxidant power of BCPOs was determined following the ORAC-FL method using fluorescein as the fluorescent probe. (±)-6-Hydroxy-2,5,7,8-tetramethylchromane-2-carboxylic acid (Trolox), fluorescein (FL) and AAPH were bought from Sigma-Aldrich (Saint Louis, MO, USA). A Varioskan Flash plate reader with built-in injectors (Thermo Scientific, Waltham, MA, USA) was used. The final volume reaction mixture was 200 µL and the reaction was carried out at 37 °C in 75 mM phosphate buffer (pH 7.4). The tested compounds and Trolox standard were dissolved in DMSO to 10 mM and further diluted in phosphate buffer. The final concentrations were 0.1–1 µM for the tested compounds and 1–8 µM for Trolox standard. The blank was composed of 120 µL of FL, 60 µL of AAPH and 20 µL of phosphate buffer (pH = 7.4) and was added in each assay. The antioxidant (20 µL) and fluorescein (FL, 120 µL, final concentration of 70 nM) were incubated in a black 96-well microplate Nunc, purchazed from Thermo Fisher Scientific, Ecublens, Switzerland) for 15 min at 37 °C. Then, AAPH, 60 µL, final concentration of 12 mM) solution was added quickly using the built-in injector. […] The microplate was automatically shaken prior to each reading. All the experiments were made in triplicate and at least three different assays were performed for each sample.
# Using MS Excel software, regression equations were extrapolated by plotting the net AUC against the antioxidant concentration. The ORAC values were then obtained by dividing the slope of the latter curve between the slope of the Trolox curve obtained in the same assay. Final ORAC values were expressed as Trolox equivalents. Data are expressed as mean ± SD.
# [4] = ORAC-FL, cited from earlier work
# [5] = in vitro; settings: for Papp: PAMPA, pH 7.4
# Experimental: Penetration across the BBB is an essential property for compounds targeting the CNS. […] The filter membrane of the donor plate was coated with PBL (Polar Brain Lipid, Avanti, AL, USA) in dodecane (4 µL of 20 mg/mL PBL in dodecane) and the acceptor well was filled with 300 µL of PBS pH 7.4 buffer ([…]). Tested compounds were dissolved first in DMSO and that diluted with PBS pH 7.4 to reach the final concentration 100 µM in the donor well. […] 300 µL of the donor solution was added to the donor wells ([…]) and the donor filter plate was carefully put on the acceptor plate so that coated membrane was “in touch” with both donor solution and acceptor buffer. Test compound diffused from the donor well through the lipid membrane (Area = 0.28 cm^2) to the acceptor well. The concentration of the drug in both donor and the acceptor wells was assessed after 3, 4, 5 and 6 h of incubation in quadruplicate using the UV plate reader Synergy HT (Biotek, Winooski, VT, USA) at the maximum absorption wavelength of each compound.
# T2 sequence (P81908 whole entry): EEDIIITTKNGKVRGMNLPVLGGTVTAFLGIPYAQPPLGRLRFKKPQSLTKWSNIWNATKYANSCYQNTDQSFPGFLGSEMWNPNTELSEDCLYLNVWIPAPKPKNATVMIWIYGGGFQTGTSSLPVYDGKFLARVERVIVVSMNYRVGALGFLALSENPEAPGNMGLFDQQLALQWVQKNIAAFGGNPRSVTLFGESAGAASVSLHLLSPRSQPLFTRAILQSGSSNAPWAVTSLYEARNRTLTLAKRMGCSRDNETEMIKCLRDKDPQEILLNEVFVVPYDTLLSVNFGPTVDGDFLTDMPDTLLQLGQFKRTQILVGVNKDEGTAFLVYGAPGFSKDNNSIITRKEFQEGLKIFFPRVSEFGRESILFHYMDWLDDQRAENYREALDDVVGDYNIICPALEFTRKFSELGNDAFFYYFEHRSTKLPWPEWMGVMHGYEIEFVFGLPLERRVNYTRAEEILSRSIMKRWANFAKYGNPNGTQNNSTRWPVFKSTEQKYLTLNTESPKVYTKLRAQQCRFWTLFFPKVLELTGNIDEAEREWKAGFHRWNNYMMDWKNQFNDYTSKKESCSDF
# T1 sequence (O42275 24-633): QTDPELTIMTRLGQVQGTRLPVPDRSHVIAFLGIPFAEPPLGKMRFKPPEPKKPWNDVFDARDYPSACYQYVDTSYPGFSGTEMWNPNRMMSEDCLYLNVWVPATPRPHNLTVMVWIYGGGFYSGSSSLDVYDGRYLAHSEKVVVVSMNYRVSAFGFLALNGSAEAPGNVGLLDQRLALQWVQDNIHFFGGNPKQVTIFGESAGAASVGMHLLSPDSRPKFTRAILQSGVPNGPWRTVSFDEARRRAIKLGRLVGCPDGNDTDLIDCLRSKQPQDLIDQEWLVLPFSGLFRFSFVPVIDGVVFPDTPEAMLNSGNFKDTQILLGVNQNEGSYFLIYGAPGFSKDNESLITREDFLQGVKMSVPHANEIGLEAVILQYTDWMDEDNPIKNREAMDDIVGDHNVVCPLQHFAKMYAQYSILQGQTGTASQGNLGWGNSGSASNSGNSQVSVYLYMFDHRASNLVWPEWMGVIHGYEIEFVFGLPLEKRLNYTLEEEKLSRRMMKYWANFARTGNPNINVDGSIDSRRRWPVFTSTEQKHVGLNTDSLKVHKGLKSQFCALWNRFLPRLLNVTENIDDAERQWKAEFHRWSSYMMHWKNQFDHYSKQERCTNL
Compound,IC50 [1] [µM],inhibition at 10 µM [2] [%],ORAC [3] [Trolox equivalents],ORAC [4],ORAC ([4]; listed as ferulic acid) [Trolox equivalents],Papp [5] [nm/s],BBB Penetration Estimation CNS (+/−) ([5]; PAMPA-BBB class)
"O=c1c2c(nc3n1CCCCC3)Oc1ccc3ccccc3c1C2c1ccccc1 (centres unmarked) [3Ac, 16-Phenyl-10,11,12,13,-tetrahydro-16H-benzo[5,6]chromeno[2′,3′,4,5]pyrimido[1,2-a]azepin-15(9H)-one]",0.301 ± 0.0065,28.4 ± 7.3,2.5 ± 0.2,–,–,–,–
"COc1cccc(C2c3ccc4ccccc4c3Oc3nc4n(c(=O)c32)CCC4)c1 (centres unmarked) [4Ba, 7-(3′-Methoxyphenyl)-11,12-dihydro-7H-benzo[7,8]chromeno[2,3-d]pyrrolo[1,2-a]pyrimidin-8(10H)-one]",0.327 ± 0.0389,38 ± 1.6,3.8 ± 0.1,–,–,–,–
"Cc1ccc(C2c3c(nc4n(c3=O)CCCCC4)Oc3ccc4ccccc4c32)cc1 (centres unmarked) [3Cc, 16-(4’-Methylphenyl)-10,11,12,13-tetrahydro-16H-benzo[5,6]chromeno[2′,3′,4,5]pyrimido[1,2-a]azepin-15(9H)-one]",0.167 ± 0.0078,< 10,3.1 ± 0.2,–,–,–,–
"Cc1ccc(C2c3ccc4ccccc4c3Oc3nc4n(c(=O)c32)CCC4)cc1 (centres unmarked) [4Ca, 7-(4′-Methylphenyl)-11,12-dihydro-7H-benzo[7,8]chromeno[2,3-d]pyrrolo[1,2-a]pyrimidin-8(10H)-one]",0.116 ± 0.0062,26.8 ± 2.9,3.2 ± 0.1,–,–,–,–
"O=c1c2c(nc3n1CCCCC3)Oc1c(ccc3ccccc13)C2c1ccccc1 (centres unmarked) [4Ac, 7-Phenyl-11,12,13,14-tetrahydro-7H-benzo[7,8]chromeno[2′,3′,4,5]pyrimido[1,2-a]azepin-8(10H)-one]",0.29 ± 0.0083,24.2 ± 3.1,2.5 ± 0.1,–,–,–,–
"Cc1ccc(C2c3c(nc4n(c3=O)CCC4)Oc3ccc4ccccc4c32)cc1 (centres unmarked) [3Ca, 14-(4′-Methylphenyl)-10,11-dihydro-14H-benzo[5,6]chromeno[2,3-d]pyrrolo[1,2-a]pyrimidin-13(9H)-one]",0.112 ± 0.0217,17.4 ± 1.8,2.7 ± 0.3,–,–,–,–
"O=c1c2c(nc3n1CCC3)Oc1ccc3ccccc3c1C2c1ccccc1 (centres unmarked) [3Aa, 14-Phenyl-10,11-dihydro-14H-benzo[5,6]chromeno[2,3-d]pyrrolo[1,2-a]pyrimidin-13(9H)-one]",0.518 ± 0.0879,12.1 ± 1.4,2.6 ± 0.1,–,–,–,–
"O=c1c2c(nc3n1CCCC3)Oc1c(ccc3ccccc13)C2c1ccccc1 (centres unmarked) [4Ab, 7-Phenyl-10,11,12,13-tetrahydro-7H-benzo[7,8]chromeno[2,3-d]pyrido[1,2-a]pyrimidin-8-one]",0.384 ± 0.0194,54.6 ± 1.8,2.3 ± 0.2,–,–,–,–
"O=c1c2c(nc3n1CCC3)Oc1c(ccc3ccccc13)C2c1ccccc1 (centres unmarked) [4Aa, 7-Phenyl-11,12-dihydro-7H-benzo[7,8]chromeno[2,3-d]pyrrolo[1,2-a]pyrimidin-8(10H)-one]",0.318 ± 0.026,23.1 ± 3.1,2.1 ± 0.1,–,–,–,–
COc1cc(/C=C/C(=O)O)ccc1O [Ferulic acid],–,–,–,3.7 ± 0.1 [22] Trolox equivalents,3.7,–,–
"COc1cccc(C2c3c(nc4n(c3=O)CCCCC4)Oc3ccc4ccccc4c32)c1 (centres unmarked) [3Bc, 16-(3′-Methoxyphenyl)-10,11,12,13-tetrahydro-16H-benzo[5,6]chromeno[2′,3′,4,5]pyrimido[1,2-a]azepin-15(9H)-one]",0.107 ± 0.0072,< 10,3.5 ± 0.3,–,–,–,–
"Cc1ccc(C2c3ccc4ccccc4c3Oc3nc4n(c(=O)c32)CCCCC4)cc1 (centres unmarked) [4Cc, 17-(4′-Methylphenyl)-11,12,13,14-tetrahydro-7H-benzo[7,8]chromeno[2′,3′,4,5]pyrimido[1,2-a]azepin-8(10H)-one]",0.174 ± 0.0059,< 10,3.6 ± 0.2,–,–,–,–
"COc1cccc(C2c3ccc4ccccc4c3Oc3nc4n(c(=O)c32)CCCCC4)c1 (centres unmarked) [4Bc, 7-(3′-Methoxyphenyl)-11,12,13,14-tetrahydro-7H-benzo[7,8]chromeno[2′,3′,4,5]pyrimido[1,2-a]azepin-8(10H)-one]",0.195 ± 0.0062,31.1 ± 2.1,3.4 ± 0.2,–,–,–,–
"CN1C(C(=O)Nc2ccccn2)=C(O)c2ccccc2S1(=O)=O [Piroxicam, reference compound]",–,–,–,–,–,22 ± 1.5,CNS (+/−) (‘CNS (+/−) (BBB permeability uncertain); Pe (10^−6 cm·s^−1) from 4.0 to 2.0)
"CCN(C)C(=O)Oc1cccc([C@H](C)N(C)C)c1 [Rivastigmine, reference compound]",–,–,–,–,–,66 ± 5,–
"Cc1ccc(C2c3ccc4ccccc4c3Oc3nc4n(c(=O)c32)CCCC4)cc1 (centres unmarked) [4Cb, 7-(4′-Methylphenyl)-10,11,12,13-tetrahydro-7H-benzo[7,8]chromeno[2,3-d]pyrido[1,2-a]pyrimidin-8-one]",0.193 ± 0.0187,24.4 ± 1.2,2.9 ± 0.1,–,–,–,–
"COc1cccc(C2c3ccc4ccccc4c3Oc3nc4n(c(=O)c32)CCCC4)c1 (centres unmarked) [4Bb, 7-(3′-Methoxyphenyl)-10,11,12,13-tetrahydro-7H-benzo[7,8]chromeno[2,3-d]pyrido[1,2-a]pyrimidin-8-one]",0.153 ± 0.0031,< 10,3.7 ± 0.2,–,–,–,–
